The structures appear in SMILES notation.

Assay [1] relates to human vascular smooth muscle cells (hVSMC). The assay can be described thus: hVSMC viability, MTT test. The class given is cell-based.
For a further assay, the system named is hVSMCs. The assay can be described thus: mRNA levels in hVSMCs (PAI-1, MMP2, Cx43, tPA, HMOX). In kind it is cell-based, human. The settings on record: ATV directly added in the medium, 24 hours incubation. The protocol:
FIG. 6: Analysis of transcripts and proteins of hVSMC. Measurements of various mRNAs levels in hVSMCs in presence of ATV directly added in the medium were performed. PAI-1 and MMP2 and Cx43 mRNA levels were decreased whereas tPA and HMOX transcripts were increased after 24 hours incubation.
(§1) To that end, experiments on the influence of the drug on migration and transmigration of the hVSMC and the expression of different mRNAs of proteins involved in the cellular invasivity were performed.

A further assay has as its system Primary hVSMCs. The assay can be described thus: hVSMC migration, silicon culture inserts with cell free gap. The class given is cell-based, human. The protocol:
as §1

Turning to `CC(C)c1c(C(=O)Nc2ccccc2)c(-c2ccccc2)c(-c2ccc(F)cc2)n1CC[C@@H](O)C[C@@H](O)CC(=O)O` [ATV, Atorvastatin], the “time of viability reduction” value in assay [1] (5 μM ATV) came to 72 h. In addition, the “time of viability reduction” value in assay [1] (10 μM ATV) amounted to 24 h. For the same compound, the “viability of hVSMCs (MTT test)” value in assay [1] (5-10 μM ATV, P<0.05 versus cells without ATV) was “significantly reduced”. The “proliferation of human SMC” value in assay [1] (primary culture at passage 2-5) is recorded as “decreased”. Moreover, in the assay with hVSMCs, the “Cx43 mRNA level” value was “decreased”, the HMOX transcript level result is on record as “increased”, the “MMP2 mRNA level” value is listed as “decreased” and the “PAI-1 mRNA level” value was “decreased”. Also, the tPA transcript level entry with hVSMCs was “increased”. Further, the “time at which inhibition of cell migration was observed” value in the assay on Primary hVSMCs (5 μM ATV directly added to the culture medium) amounted to 36 h. Also, the “time at which inhibition of cell migration was observed” value in the assay with Primary hVSMCs (10 μM ATV directly added to the culture medium) was determined as 24 h. Besides, the “hVSMC migration into cell free gap” value in the assay with Primary hVSMCs (5 and 10 μM ATV) was “decreased”.

The values above are taken from patent US10363227B2, “Pharmaceutical formulation for use in the treatment and/or prevention of restenosis” (Centre Hospitalier Universitaire Vaudois (C.H.U.V.), priority 2013, dated 2019).
